Assay results reported in US20210353595A1, “USE OF MELATONIN IN PREPARATION OF MEDICAMENT FOR INHIBITING AND/OR KILLING BACTERIUM” (priority 2020, published 2021).

Assays:
Pneumococcus = test: Growth curve with melatonin and citric acid; type: cell-based, Diplococcus pneumoniae; details: MT 1-3 mg/mL, FIG. 27
Description: (§1) In additional studies, 1 mL of Klebsiella pneumoniae, Pseudomonas aeruginosa, Diplococcus pneumoniae and Streptococcus pneumoniae at the logarithmic growth stage was added into 100 mL of fresh and sterile Martin broth medium containing different concentrations of melatonin and citric acid (CA) (MT-1 mg/mL, MT-1 mg/mL-CA-1 mg/mL, MT-1 mg/mL-CA-2 mg/mL, MT-1 mg/mL-CA-3 mg/mL; MT-2 mg/mL, MT-2 mg/mL-CA-1 mg/mL, MT-2 mg/mL-CA-2 mg/mL, MT-2 mg/mL-CA-3 mg/mL; MT-3 mg/mL, MT-3 mg/mL-CA-1 mg/mL, MT-3 mg/mL-CA-2 mg/mL MT-3 mg/mL-CA-3 mg/mL).

Streptococcus = test: Growth curve with melatonin and citric acid; type: cell-based, Streptococcus pneumoniae; details: MT 1-3 mg/mL, FIG. 27
Description: as §1

For COc1ccc2[nH]cc(CCNC(C)=O)c2c1 [melatonin, N-acetyl-5-methoxytryptamine], the antibacterial activity (Pneumococcus) was “exhibits antibacterial activity” and the antibacterial activity (Streptococcus) was “exhibits antibacterial activity”.
